Test results published in patent US12275687B2 (priority 2017, dated 2025).
Where a chain is given by its changes, count along the chain named.

Legend:
[1] = target: BLT1-T4L; assay: Competition assay of ligands against ^3H-LTB4, BLT1-T4L expressed in P. pastoris; type: binding, guinea pig; conditions: for logIC50: log value (negative)
Excerpt: For the ligand binding assay of BLT1-T4Ls, the T4L cDNA was integrated into the cDNA, encoding the newly generated thermostable BLT1 mutant with the additional mutation V212A, by the consensus method (residues 1-14 deleted and H83G/K88G/V212A/S309A mutations), with the α-factor PrePro signal sequence and the FLAG tag at the N-terminal, and the PreScission site and the His6 tag at the C-terminal of BLT1 (Hori T. et al., 2010, supra) in the pPIC3.5K vector, using the In-Fusion enzyme (FIG. 7A). The expression vectors were introduced into the yeast Pichia pastoris using an EasyComp kit (Thermo Fisher Scientific). BLT1-T4Ls were expressed in 10 ml cultures, and the membrane fraction was prepared as described previously (Hori T. et al., 2010, supra; Hon T. et al., 2015, supra).
(§1) For the evaluation of the ligand-binding activity of the BLT1 mutants and BLT1-T4Ls, a ^3H-LTB4 binding assay was performed using the BLT1-expressing membrane fractions of COS-7, HEK293, or P. pastoris cells, as described previously (Hori T. et al., 2010, supra; Hori T. et al., 2015, supra). For the evaluation of the thermostability, the membrane fraction was heat-treated before the ^3H-LTB4 binding assay.

[2] = target: T1, BLT1 (Cavia porcellus, UniProt H0VYV8); assay: TGFα shedding assay with benzamidine (G-protein activation by LTB4); type: cell-based; parameters: expressed in transfected cells; conditions: for logβ / β: LTB4-induced efficacy modulation by benzamidine
Method: Each point (±s.e.m.) indicates the mean value of three independent experiments, each with triplicate reactions. […] Each point (±s.e.m.) indicates the mean value of three independent experiments, each with triplicate reactions. […] Each point (±s.e.m.) indicates the mean value of triplicate reactions. […] To determine the parameters, three steps of fitting procedures were performed.

[3] = target: T2, wild-type BLT1 (Cavia porcellus, UniProt H0VYV8); assay: Competition binding assay of benzamidine and NaCl to 0.5 nM ^3H-LTB4 (allosteric modulation titration analysis); parameters: species or system guinea pig
T2 construct: expressed in transfected cells; host or cells: HEK293 (membrane fraction)
Excerpt: Each point (±s.e.m.) indicates the mean value of three independent experiments, each with triplicate reactions. […] Each point (±s.e.m.) indicates the mean value of three independent experiments, each with triplicate reactions. […] Each point (±s.e.m.) indicates the mean value of triplicate reactions. For the evaluation of the thermostabilities of guinea pig BLT1 mutants designed by the consensus method (FIG. 8A), point mutations were introduced using a QuikChange kit (Agilent) to the previously constructed thermostabilized BLT1 […] deleted, […] mutations, and an N-terminal FLAG-tag) in the pcDNA3 vector (Hori, T. et al., Protein Expr. Purif. 72 (2010) 66-74; Hori, T. et al., Biochem. Biophys. Rep. 4 (2015) 243-249). The expression vectors encoding the BLT1 mutants were transfected into COS-7 cells with Lipofectamine 2000. For the analysis of the BIIL260 binding residues of BLT1, point mutations were introduced, using the In-Fusion enzyme (Clontech), into the wild-type BLT1 cDNA with the N-terminal FLAG-tag in the pcDNA3 vector. The expression vectors were transfected into HEK293 cells, using polyethyleneimine. […] The BLT1 mutants were transiently expressed for three days at 37° C. The cells were washed with PBS, harvested with PBS-EDTA, disrupted with a sonicator, and centrifuged at 800×g for 5 min. The supernatant was further ultra-centrifuged at 100,000×g for 60 min, and the precipitate was collected. For the evaluation of the ligand-binding activity of the BLT1 mutants and BLT1-[…], a ^3H-LTB4 binding assay was performed using the BLT1-expressing membrane fractions of COS-7, HEK293, or P. pastoris cells, as described previously (Hori T. et al., 2010, supra; Hori T. et al., 2015, supra). For the evaluation of the thermostability, the membrane fraction was heat-treated before the ^3H-LTB4 binding assay. […] For all of the pharmacological analyses, nonlinear regression curve fitting was performed using Prism 5 (Graph Pad Software).

[4] = target: T1, BLT1; assay: Saturation binding assay of ^3H-LTB4 and BLT1 with various concentrations of benzamidine; parameters: expressed in transfected cells; host or cells: HEK293 (membrane fraction); species or system guinea pig
Method: Each point (±s.e.m.) indicates the mean value of three independent experiments, each with triplicate reactions. […] Each point (±s.e.m.) indicates the mean value of three independent experiments, each with triplicate reactions. […] Each point (±s.e.m.) indicates the mean value of triplicate reactions. For the evaluation of the ligand-binding activity of the BLT1 mutants and BLT1-[…], a ^3H-LTB4 binding assay was performed using the BLT1-expressing membrane fractions of COS-7, HEK293, or P. pastoris cells, as described previously (Hori T. et al., 2010, supra; Hori T. et al., 2015, supra). For the evaluation of the thermostability, the membrane fraction was heat-treated before the ^3H-LTB4 binding assay.

[5] = target: T2, wild-type BLT1; assay: Competition binding of BIIL260 to 0.5 nM ^3H-LTB4, wild-type BLT1 in HEK293 membrane fraction; parameters: species or system guinea pig; conditions: WT
Excerpt: (A) Structure of the BIIL260-binding site. BIIL260 and the BLT1 side chains within 4 Å from BIIL260 are represented by stick models, and transmembrane helices are depicted by thin ribbons. Sulfur atoms are colored gold. (B) Schematic representation of the BLT1-BIIL260 interaction. Intermolecular forces such as the salt bridge, hydrogen bonding, π-to-edge, CH-to-π, and hydrophobic interactions are indicated in red, blue, orange, violet, and green, respectively. The three non-identical residues in human BLT1 and BLT2, a cognate receptor of BLT1, are highlighted in green shaded boxes, and the corresponding residues of human BLT1 and BLT2 (hBLT1 and hBLT2, respectively) are also presented. (C) Competition binding assays of BIIL260 to 0.5 nM ^3H-LTB4, using the membrane fractions of HEK293 cells expressing the mutant and wild-type BLT1s. The mutations were introduced at the residues involved in the specific BIIL260 binding. Each point (±s.e.m.) indicates the mean value of two independent experiments, each with triplicate reactions. NS is non-specific binding measured with 0.5 μM LTB4. […]

[6] = target: T3, BLT1 V69^2.53A mutant (Cavia porcellus, UniProt H0VYV8, V69A); assay: Competition binding of BIIL260 to 0.5 nM ^3H-LTB4, BLT1 mutant in HEK293 membrane fraction; parameters: species or system guinea pig
T3 construct: expressed in transfected cells; host or cells: HEK293 (membrane fraction)
T3 sequence (H0VYV8 1-348 V69A): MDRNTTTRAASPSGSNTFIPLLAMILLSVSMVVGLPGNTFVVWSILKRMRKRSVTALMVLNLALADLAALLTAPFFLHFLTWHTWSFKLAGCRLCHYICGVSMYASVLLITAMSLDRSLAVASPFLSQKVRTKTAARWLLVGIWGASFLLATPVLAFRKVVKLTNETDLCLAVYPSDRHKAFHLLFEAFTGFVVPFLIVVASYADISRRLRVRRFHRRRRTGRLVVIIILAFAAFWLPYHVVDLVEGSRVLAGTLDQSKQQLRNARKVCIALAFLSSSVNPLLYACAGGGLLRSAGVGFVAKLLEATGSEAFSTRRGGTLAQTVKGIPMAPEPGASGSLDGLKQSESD
Excerpt: (§2) (A) Structure of the BIIL260-binding site. BIIL260 and the BLT1 side chains within 4 Å from BIIL260 are represented by stick models, and transmembrane helices are depicted by thin ribbons. Sulfur atoms are colored gold. (B) Schematic representation of the BLT1-BIIL260 interaction. Intermolecular forces such as the salt bridge, hydrogen bonding, π-to-edge, CH-to-π, and hydrophobic interactions are indicated in red, blue, orange, violet, and green, respectively. The three non-identical residues in human BLT1 and BLT2, a cognate receptor of BLT1, are highlighted in green shaded boxes, and the corresponding residues of human BLT1 and BLT2 (hBLT1 and hBLT2, respectively) are also presented. (C) Competition binding assays of BIIL260 to 0.5 nM ^3H-LTB4, using the membrane fractions of HEK293 cells expressing the mutant and wild-type BLT1s. The mutations were introduced at the residues involved in the specific BIIL260 binding. Each point (±s.e.m.) indicates the mean value of two independent experiments, each with triplicate reactions. NS is non-specific binding measured with 0.5 μM LTB4.
(§3) For the evaluation of the thermostabilities of guinea pig BLT1 mutants designed by the consensus method (FIG. 8A), point mutations were introduced using a QuikChange kit (Agilent) to the previously constructed thermostabilized BLT1 mutant cDNA (residues 1-14 deleted, H83G/K88G/S309A mutations, and an N-terminal FLAG-tag) in the pcDNA3 vector (Hori, T. et al., Protein Expr. Purif. 72 (2010) 66-74; Hori, T. et al., Biochem. Biophys. Rep. 4 (2015) 243-249). The expression vectors encoding the BLT1 mutants were transfected into COS-7 cells with Lipofectamine 2000. For the analysis of the BIIL260 binding residues of BLT1, point mutations were introduced, using the In-Fusion enzyme (Clontech), into the wild-type BLT1 cDNA with the N-terminal FLAG-tag in the pcDNA3 vector. The expression vectors were transfected into HEK293 cells, using polyethyleneimine. […] The BLT1 mutants were transiently expressed for three days at 37° C. The cells were washed with PBS, harvested with PBS-EDTA, disrupted with a sonicator, and centrifuged at 800×g for 5 min. The supernatant was further ultra-centrifuged at 100,000×g for 60 min, and the precipitate was collected.
as §1

[7] = target: T4, BLT1 L80^2.64A mutant (Cavia porcellus, UniProt H0VYV8, L80A); assay: as above; parameters: species or system guinea pig
T4 construct: expressed in transfected cells; host or cells: HEK293 (membrane fraction)
Excerpt: as §2, §3, §1

[8] = target: T5, BLT1 S276^7.45A mutant (Cavia porcellus, UniProt H0VYV8, S276A); assay: as above; parameters: species or system guinea pig
T5 construct: expressed in transfected cells; host or cells: HEK293 (membrane fraction)
Excerpt: as §2, §3, §1

[9] = target: T6, BLT1 S106^3.39A mutant (Cavia porcellus, UniProt H0VYV8, S106A); assay: as above; parameters: species or system guinea pig
T6 construct: expressed in transfected cells; host or cells: HEK293 (membrane fraction)
Excerpt: as §2, §3, §1

[10] = target: T7, BLT1 W236^6.48A mutant (Cavia porcellus, UniProt H0VYV8, W236A); assay: as above; parameters: species or system guinea pig
T7 construct: expressed in transfected cells; host or cells: HEK293 (membrane fraction)
Excerpt: as §2, §3, §1

[11] = target: T8, BLT1 D66^2.50A mutant (Cavia porcellus, UniProt H0VYV8, D66A); assay: as above; parameters: species or system guinea pig
T8 construct: expressed in transfected cells; host or cells: HEK293 (membrane fraction)
T8 sequence (H0VYV8 1-348 D66A): T3 sequence (H0VYV8 1-348 V69A) with D66A, A69V
Excerpt: as §2, §3, §1

[12] = cooperative factor between ^3H-LTB4 and the modulator
[13] = saturation binding, global fitting

T1 sequence (H0VYV8 1-348): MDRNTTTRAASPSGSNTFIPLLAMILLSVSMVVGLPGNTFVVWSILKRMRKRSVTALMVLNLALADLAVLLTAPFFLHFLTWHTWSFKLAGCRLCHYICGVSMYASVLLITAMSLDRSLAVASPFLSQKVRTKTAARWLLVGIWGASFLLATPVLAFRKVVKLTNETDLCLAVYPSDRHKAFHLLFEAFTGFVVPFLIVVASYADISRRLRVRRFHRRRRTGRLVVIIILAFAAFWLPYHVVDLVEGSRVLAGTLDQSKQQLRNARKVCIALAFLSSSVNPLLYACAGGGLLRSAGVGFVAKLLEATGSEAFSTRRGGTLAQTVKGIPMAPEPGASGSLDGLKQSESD
T2 sequence (H0VYV8 1-348): as above
T5 sequence (H0VYV8 1-348 S276A): as the sequence (H0VYV8 1-348) above, with S276A counted along it
T4 sequence (H0VYV8 1-348 L80A): as the sequence (H0VYV8 1-348) above, with L80A counted along it
T6 sequence (H0VYV8 1-348 S106A): as the sequence (H0VYV8 1-348) above, with S106A counted along it
T7 sequence (H0VYV8 1-348 W236A): as the sequence (H0VYV8 1-348) above, with W236A counted along it

## CCOC(=O)NC(=N)c1ccc(OCc2cccc(COc3ccc(C(C)(C)c4ccc(O)cc4)cc3)c2)cc1
[1]
  Ki: 148 nM
  logIC50: −6.7

## N=C(N)c1ccccc1 [Benzamidine, benzamidine]
[2]; FIGS. 3C and 3D
  BLT1-LTB4-mediated Gq/il and G16 activation: decreased
[2]; G16
  logα: −0.45
  α: (α = 0.36)
  logβ: −1.6
  β: (β = 0.03)
[2]; Gq/i1
  logα: 0.00
  α: (α = 1.00)
  logβ: −1.9
  β: (β = 0.01)
[2]; as a whole
  cooperative factor of the LTB4-induced efficacy modulation (β): < 1
[2]; as a whole (binding and shedding assays)
  cooperative factor of the binding of LTB4 to BLT1 (α): ≤ 1
[3]; FIG. 3A
  level of the LTB4-BLT1 binding: decreased the level of the LTB4-BLT1 binding in a benzamidine concentration-dependent manner
  suppression of the BLT1-LTB4 binding compared with the sodium ion: more potently than the sodium ion, by one order of magnitude
[3]; [12]
  logα: −0.82
  α: (α = 0.15)
[4]; FIG. 3B
  binding affinity of LTB4 toward BLT1: lowered
[4]; [13]
  logα: −0.93
  α: (α = 0.12)

## CC(C)(c1ccc(O)cc1)c1ccc(OCc2cccc(COc3ccc(C(=N)N)cc3)c2)cc1 [BIIL260]
[5]
  IC50: 30 nM
[5]; log value (negative)
  logIC50: −7.5
[6]
  IC50: 33 nM
[6]; log value (negative)
  logIC50: −7.5
[7]
  IC50: 12 nM
[7]; log value (negative)
  logIC50: −7.9
[8]; S276^7.45A
  IC50: 124 nM
[8]; S276^7.45A mutation
  BIIL260-binding ability: decreased
[8]; S276^7.45A, log value (negative)
  logIC50: −6.9
[9]
  IC50: 12 nM
[9]; log value (negative)
  logIC50: −7.9
[10]
  IC50: 62 nM
[10]; log value (negative)
  logIC50: −7.2
[11]; D66^2.50A
  logIC50 (IC50): No binding
[11]; D66^2.50A mutation
  BIIL260-binding ability: abrogated
[1]
  Ki: 2.3 nM
  logIC50: −8.5
